Values quoted from earlier work, collected in patent publication US6642259B1, “Immune stimulating dietary supplement and method of use thereof” (Trustees of Tufts College, priority 1999, dated 2003).

Legend:
[1] = tested on: T cell function; conditions: supplementation of old mice
[2] = tested on: T-cell mediated funtion; conditions: supplementation of the elderly human

For vitamin E, the T cell function [1] is listed as “increased” and the “immunological responses (e.g. T-cell mediated funtion)” value [2] is listed as “improved”.
